The values below come from paper PMC8151276, “An Integrated Approach toward NanoBRET Tracers for Analysis of GPCR Ligand Engagement” (Molecules, 2021).

What all share (assay type): binding
In one test the target is T1, P2RY14 (Homo sapiens, UniProt Q15391).
T1 construct: purchased Promega (in-house HiBiT-GPCR construct library, NanoBRET)
T1 sequence (Q15391 1-338): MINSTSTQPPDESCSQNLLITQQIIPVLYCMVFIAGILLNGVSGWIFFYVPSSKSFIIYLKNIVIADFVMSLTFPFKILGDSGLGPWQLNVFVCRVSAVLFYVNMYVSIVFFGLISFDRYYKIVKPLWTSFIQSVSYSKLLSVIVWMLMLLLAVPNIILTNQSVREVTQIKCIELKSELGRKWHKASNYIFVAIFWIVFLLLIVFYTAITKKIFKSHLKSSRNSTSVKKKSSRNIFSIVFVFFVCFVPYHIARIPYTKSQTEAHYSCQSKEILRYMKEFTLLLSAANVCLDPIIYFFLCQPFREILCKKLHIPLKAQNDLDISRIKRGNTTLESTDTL
In words: NanoBRET screen HiBiT-P2RY14 in HEK293. How it is done:
(§1) Each tracer candidate was screened across the entire library of HiBiT-GPCR constructs using NanoBRET as the detection modality. As depicted in Figure 4A, the specificity of interactions was evaluated through decrease in BRET due to competitive displacement of a bound tracer by excess parental compound. Each tracer was analyzed for binding to each HiBiT-GPCR fusion in the absence and in the presence of competing parental compound. Briefly, HEK293 cells were transfected with HiBiT-GPCR constructs diluted into promoterless DNA to reduce expression and maximize translocation to the cell surface. Each tracer candidate was then screened at concentrations of 1 μM and 0.1 μM across cells expressing these fusions. Cells were treated for 1.5 h with tracer either alone or in the presence of 20 μM competing parental compound (i.e., control). BRET was measured upon addition of purified LgBiT and subsequent complementation with HiBiT genetically fused to a GPCR. The specificity of interactions was assessed through a decrease in BRET signal due to competitive displacement of the bound tracer. To further gauge the robustness of these interactions, the fold response over the control (i.e., BRETtracer/BRETcontrol) was calculated. We chose a 1.5-fold response, which translates to ≥7-fold signal over noise as the minimal threshold required to score an interaction as positive. […]. Below we highlight the screening results obtained for our exemplary fluorescent tracers based on Clozapine, Amitriptyline and AZD1283.
(§2) HiBiT-GPCR DNA constructs were diluted in 10 mM Tris pH 8 to a final concentration of 0.01 μg/μL, arrayed in 96-well plates and stored at −20 °C. For transfection, HEK293 cells were suspended in Opti-MEM (without phenol red) supplemented with 2% fetal bovine serum (Seradigm) and 100 units/mL penicillin–streptomycin (Gibco) at a final concentration of 220,000 cells/mL and dispensed into white 96-well plates at 90 μL/well. Subsequent transfections and screens were carried using an Agilent Bravo Automated Liquid Handling Platform. First, the 96-well HiBiT DNA arrays were diluted 25-fold in Opti-MEM (without serum or phenol red) to a final concentration of 0.0004 μg/μL and 20 μL of the diluted DNAs were transferred into new 96-well plates. Next, promoterless carrier DNA (1 μg/μL) was diluted 25-fold (0.04 μg/μL) and then dispensed into the diluted arrays at 20 μL/well. Following brief mixing, Viafect transfection reagent (Promega) diluted 16-fold into Opti-MEM was dispensed into the plates at 40 μL/well. After mixing by pipetting, plates were incubated for 10 min on the pipetting station deck. The DNA-transfection reagent complexes were then added to plates containing cells. To facilitate the screen, 10 μL of DNA-transfection reagent complexes were added in duplicates to the top 4 and bottom 4 rows, resulting in two identical 48-well arrays per plate. Plates with transfected cells were incubated for 18–20 h at 37 °C/5% CO2. A screen of each tracer across the entire library using two different concentrations requires duplicate plates of transfected cells. Depending on the number of tracers being screened, transfections can be scaled up using the same ratios. The next day, for each tracer, four 20× screening solutions in tracer dilution buffer (Promega) were prepared: two duplicates at final concentration of 20 μM and two duplicates at a final concentration of 2 μM. A competing unmodified compound was added to one of each duplicate at a final concentration of 400 μM. The four resulting solutions were diluted 4-fold in Opti-MEM without serum or phenol red to generate 5× solutions (5 µM and 0.5 µM tracer +/− 100 μM competing compound). To screen the library, a BioTek MultiFlo FX liquid dispenser was used to dispense 22.5 µL of tracer solution to the top 4 rows and 22.5 µL tracer + competing compound solution to the 4 bottom rows. Plates were briefly mixed on an orbital shaker and incubated for 1.5 h at room temperature. […]
Background: Bioluminescence resonance energy transfer reports proximity on the nanometre scale.

In a further test the target is T2, DRD5 (Homo sapiens, UniProt P21918).
T2 construct: purchased Promega (in-house HiBiT-GPCR construct library, NanoBRET)
T2 sequence (P21918 whole entry): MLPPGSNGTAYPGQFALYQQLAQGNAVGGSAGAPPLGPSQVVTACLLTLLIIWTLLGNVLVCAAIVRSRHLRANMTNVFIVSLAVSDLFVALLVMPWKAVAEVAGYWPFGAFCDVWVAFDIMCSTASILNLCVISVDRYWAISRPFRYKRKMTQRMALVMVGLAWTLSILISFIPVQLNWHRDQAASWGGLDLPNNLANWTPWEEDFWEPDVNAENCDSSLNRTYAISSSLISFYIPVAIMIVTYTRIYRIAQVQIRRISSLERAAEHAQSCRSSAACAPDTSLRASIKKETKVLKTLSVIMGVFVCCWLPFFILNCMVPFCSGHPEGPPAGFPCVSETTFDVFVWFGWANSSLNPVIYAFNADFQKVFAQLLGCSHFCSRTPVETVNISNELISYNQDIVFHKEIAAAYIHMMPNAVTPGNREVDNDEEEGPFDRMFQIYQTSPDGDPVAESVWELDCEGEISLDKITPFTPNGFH
Briefly: NanoBRET screen HiBiT-DRD5 in HEK293. How it is done: as §1, §2

Another test deals with T3, P2RY1 (Homo sapiens, UniProt P47900).
T3 construct: purchased Promega (in-house HiBiT-GPCR construct library, NanoBRET)
T3 sequence (P47900 whole entry): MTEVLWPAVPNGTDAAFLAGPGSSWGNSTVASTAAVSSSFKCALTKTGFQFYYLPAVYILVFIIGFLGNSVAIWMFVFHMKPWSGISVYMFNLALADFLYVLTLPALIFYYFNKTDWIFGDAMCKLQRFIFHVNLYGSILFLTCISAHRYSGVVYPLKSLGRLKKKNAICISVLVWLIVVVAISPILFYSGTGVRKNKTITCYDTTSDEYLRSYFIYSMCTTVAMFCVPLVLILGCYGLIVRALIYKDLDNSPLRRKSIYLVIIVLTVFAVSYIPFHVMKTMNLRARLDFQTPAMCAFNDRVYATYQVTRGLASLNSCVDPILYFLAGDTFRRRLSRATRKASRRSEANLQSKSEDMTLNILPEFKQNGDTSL
In words: NanoBRET screen HiBiT-P2RY1 in HEK293. The protocol:
as §1, §2

With `COc1ccc2c(n1)c(CCNC(C)=O)cn2CCNC(=O)CCc1ccc2n1[B-](F)(F)[N+]1=C(c3ccc[nH]3)C=CC1=C2` [Azamelatonin-1-NB590], the “NanoBRET Fold Response” value was determined as 0.98 on P2RY14 (0.1μM tracer); 0.98 at P2RY14 (1μM tracer); 0.97 at DRD5 (0.1μM tracer); 0.96 at DRD5 (1μM tracer); 0.99 on P2RY1 (0.1μM tracer); 0.99 on P2RY1 (1μM tracer).
As to `CC(C)N(CC[C@H](c1ccccc1)c1cc(CCNC(=O)c2ccc(CNC(=O)CCc3ccc4n3[B-](F)(F)[N+]3=C(c5ccc[nH]5)C=CC3=C4)cc2)ccc1O)C(C)C` [Tolterodine-BZ-NB590], the “NanoBRET Fold Response” value is recorded as 0.86 at P2RY14 (P2RY14, tracer 0.1μM); 0.88 on P2RY14 (P2RY14, tracer 1μM); 1.02 at DRD5 (DRD5, tracer 0.1μM); 1.18 at DRD5 (DRD5, tracer 1μM); 1.43 on P2RY1 (P2RY1, tracer 0.1μM); 1.03 on P2RY1 (P2RY1, tracer 1μM).
`O=C(CCc1ccc2n1[B-](F)(F)[N+]1=C(c3ccc[nH]3)C=CC1=C2)NCCOCCOCCNC(=O)OCCOCCN1CCN(C2=Nc3ccccc3Sc3ccccc32)CC1` [Quetiapine-a-2-NB590]: the “NanoBRET Fold Response” value at P2RY14 (P2RY14, tracer 0.1μM) stood at 0.96; on P2RY14 (P2RY14, tracer 1μM), 0.93; on DRD5 (DRD5, tracer 0.1μM) it was 1.09; on DRD5 (DRD5, tracer 1μM) it was 1.43; on P2RY1 (P2RY1, tracer 0.1μM), 1.00; at P2RY1 (P2RY1, tracer 1μM) it was 1.01.
Take `Cc1cc2c(s1)Nc1ccccc1N=C2N1CCN(CCCNC(=O)CCOCCOCCOCCOCCNC(=O)CCc2ccc3n2[B-](F)(F)[N+]2=C(c4ccc[nH]4)C=CC2=C3)CC1` [Olanzapine-a-2-NB590]: the “NanoBRET Fold Response” value at P2RY14 (P2RY14, tracer 0.1μM) was 1.05; on P2RY14 (P2RY14, tracer 1μM) it was 1.00; at DRD5 (DRD5, tracer 0.1μM), 1.20; on DRD5 (DRD5, tracer 1μM), 2.53; at P2RY1 (P2RY1, tracer 0.1μM), 0.97; on P2RY1 (P2RY1, tracer 1μM) it was 0.95.
Consider `O=C(CCc1ccc2n1[B-](F)(F)[N+]1=C(c3ccc[nH]3)C=CC1=C2)NCc1ccc(C(=O)NCCOCCOCCNCC(O)COc2cccc3ccccc23)cc1` (centres unmarked) [Propranolol-3-NB590], for which the “NanoBRET Fold Response” value on P2RY14 (P2RY14, 0.1μM) turned out to be 1.10; on P2RY14 (P2RY14, 1μM) it was 1.00; on DRD5 (DRD5, 0.1μM) it was 1.03; on DRD5 (DRD5, 1μM), 1.00; on P2RY1 (P2RY1, 0.1μM), 1.02; on P2RY1 (P2RY1, 1μM), 0.97.
For `N#CN/C(=N\CCNC(=O)c1ccc(N)cc1)NCCCOc1cccc(CN2CCCCC2)c1` [Aminopotentidine (unmodified)], the “NanoBRET Fold Response” value worked out at 1.08 at DRD5 (DRD5, other tracers/Aminopotentidine (unmodified), 0.1μM) and 1.09 at DRD5 (DRD5, other tracers/Aminopotentidine (unmodified), 1μM).
Take `CN1CCN(C2=Nc3cc(Cl)ccc3N(CC(=O)NCCOCCOCCOCCOCCNC(=O)CCc3ccc4n3[B-](F)(F)[N+]3=C(c5ccc[nH]5)C=CC3=C4)c3ccccc32)CC1` [Clozapine-c-2-NB590]: the “NanoBRET Fold Response” value amounted to 0.96 at P2RY14 (P2RY14, 0.1μM tracer); 0.89 at P2RY14 (P2RY14, 1μM tracer); 0.98 on DRD5 (DRD5, 0.1μM tracer); 1.16 at DRD5 (DRD5, 1μM tracer); 0.97 at P2RY1 (P2RY1, 0.1μM tracer); 1.03 at P2RY1 (P2RY1, 1μM tracer).
`O=C(CCc1ccc2n1[B-](F)(F)[N+]1=C(c3ccc[nH]3)C=CC1=C2)NCc1ccc(C(=O)NCCOCCC(=O)N[C@@H]2CC[C@@]3(O)[C@H]4Cc5ccc(O)c6c5[C@@]3(CCN4CC3CC3)[C@H]2O6)cc1` [Naltrexone-3-NB590]: the “NanoBRET Fold Response” value on P2RY14 (P2RY14, tracer 0.1μM) was 0.95; at P2RY14 (P2RY14, tracer 1μM), 1.00; at DRD5 (DRD5, tracer 0.1μM), 1.25; at DRD5 (DRD5, tracer 1μM), 1.07; at P2RY1 (P2RY1, tracer 0.1μM) it was 0.86; on P2RY1 (P2RY1, tracer 1μM), 0.95.
In the case of `CC(C)N(CC[C@H](c1ccccc1)c1cc(CCNC(=O)CCOCCOCCOCCOCCNC(=O)CCc2ccc3n2[B-](F)(F)[N+]2=C(c4ccc[nH]4)C=CC2=C3)ccc1O)C(C)C` [Tolterodine-2-NB590], the “NanoBRET Fold Response” value was found to be 0.93 on P2RY14 (P2RY14, tracer 0.1μM); 1.08 at P2RY14 (P2RY14, tracer 1μM); 1.01 at DRD5 (DRD5, tracer 0.1μM); 1.04 at DRD5 (DRD5, tracer 1μM); 0.97 at P2RY1 (P2RY1, tracer 0.1μM); 1.00 on P2RY1 (P2RY1, tracer 1μM).
As for `Cc1nc2n(c(=O)c1CCN1CCC(c3noc4cc(F)ccc34)CC1)CCCC2OC(=O)NCCOCCOCCOCCOCCNC(=O)CCc1ccc2n1[B-](F)(F)[N+]1=C(c3ccc[nH]3)C=CC1=C2` (centres unmarked) [Risperidone-2-NB590], the “NanoBRET Fold Response” value is 1.02 at P2RY14 (P2RY14, tracer 0.1μM); 0.93 on P2RY14 (P2RY14, tracer 1μM); 1.92 on DRD5 (DRD5, tracer 0.1μM); 2.44 on DRD5 (DRD5, tracer 1μM); 0.98 at P2RY1 (P2RY1, tracer 0.1μM); 0.97 on P2RY1 (P2RY1, tracer 1μM).
As to `O=C(CCOCCOCCOCCOCCNC(=O)CCc1ccc2n1[B-](F)(F)[N+]1=C(c3ccc[nH]3)C=CC1=C2)NCCCN1CCN(C2=Nc3cc(Cl)ccc3Nc3ccccc32)CC1` [Clozapine-a-2-NB590], the “NanoBRET Fold Response” value on P2RY14 (P2RY14, 0.1μM tracer) is reported as 1.07; on P2RY14 (P2RY14, 1μM tracer) it was 0.84; at DRD5 (DRD5, 0.1μM tracer) it was 2.41; on DRD5 (DRD5, 1μM tracer), 2.86; on P2RY1 (P2RY1, 0.1μM tracer) it was 1.01; at P2RY1 (P2RY1, 1μM tracer) it was 0.94.
Consider `COc1ccc2[nH]c(-c3ccc(CNC(=O)CCOCCOCCOCCOCCNC(=O)CCc4ccc5n4[B-](F)(F)[N+]4=C(c6ccc[nH]6)C=CC4=C5)cc3)c(CCNC(C)=O)c2n1` [AzomelatoninICO9-2-NB590], for which the “NanoBRET Fold Response” value at P2RY14 (0.1μM tracer) is 1.21; on P2RY14 (1μM tracer) it was 1.13; at DRD5 (0.1μM tracer), 1.14; at DRD5 (1μM tracer), 0.93; on P2RY1 (0.1μM tracer), 0.99; at P2RY1 (1μM tracer), 0.99.
Regarding `CN1CCN(C2=Nc3cc(Cl)ccc3Nc3ccc(CNC(=O)CCOCCOCCOCCOCCNC(=O)CCc4ccc5n4[B-](F)(F)[N+]4=C(c6ccc[nH]6)C=CC4=C5)cc32)CC1` [Clozapine-b-2-NB590], the “NanoBRET Fold Response” value amounted to 1.01 on P2RY14 (P2RY14, 0.1μM tracer); 0.99 on P2RY14 (P2RY14, 1μM tracer); 1.01 on DRD5 (DRD5, 0.1μM tracer); 1.83 at DRD5 (DRD5, 1μM tracer); 1.03 on P2RY1 (P2RY1, 0.1μM tracer); 1.01 at P2RY1 (P2RY1, 1μM tracer).
